# Legend:
# [1] = Measurement of logP values by HPLC on reversed phase columns (EEC directive 79/831 Annex V.A8); format: physicochemical; details: pH 2.7, 0.1% formic acid in water / acetonitrile gradient, calibration with alkan-2-ones
# Method: Measurement of logP values was performed according EEC directive 79/831 Annex V.A8 by HPLC (High Performance Liquid Chromatography) on reversed phase columns with the following methods:
# Measurement of LC-MS was done at pH 2.7 with 0.1% formic acid in water and with acetonitrile (contains 0.1% formic acid) as eluent with a linear gradient from 10% acetonitrile to 95% acetonitrile.
# Calibration was done with not branched alkan2-ones (with 3 to 16 carbon atoms) with known logP-values (measurement of logP values using retention times with linear interpolation between successive alkanones). lambda-maX-values were determined using UV-spectra from 200 nm to 400 nm and the peak values of the chromatographic signals.
# [2] = tested on: Phytophthora infestans; format: in vivo; details: tomato plants, preventive spray, 500 ppm of active ingredient, evaluated 7 days after inoculation; 0% = untreated control, 100% = no disease
SMILES,Log P [1],Eff. % [2] [%]
Cn1nnnc1C(=NOCc1cccc(NC(=O)COCC2CC2)n1)c1ccccc1 [Example 1],3.29,–
CC(OCC1CC1)C(=O)Nc1ccc(Br)c(CON=C(c2ccccc2)c2nnnn2C)n1 (stereo not drawn) [Example 3],4.23,100
Cn1nnnc1C(=NOCc1cccc(NC(=O)COCC2CCCC2)n1)c1ccccc1 [Example 5],4.24,97
Cn1nnnc1C(=NOCc1cccc(NC(=O)COCC2CCCCC2)n1)c1ccccc1 [Example 6],4.63,95
CC(OCC1CCCCC1)C(=O)Nc1cccc(CON=C(c2ccccc2)c2nnnn2C)n1 (stereo not drawn) [Example 7],5.03,100
CC(OCC1CCCC1)C(=O)Nc1cccc(CON=C(c2ccccc2)c2nnnn2C)n1 (stereo not drawn) [Example 8],4.59,100
Cn1nnnc1C(=NOCc1cccc(NC(=O)COCCC2CCCCC2)n1)c1ccccc1 [Example 10],4.98,95
Cn1nnnc1C(=NOCc1cccc(NC(=O)COCCC2CCCC2)n1)c1ccccc1 [Example 11],4.61,95
CC(OCC1CCCCC1)C(=O)Nc1nc(CON=C(c2ccccc2)c2nnnn2C)cs1 (stereo not drawn) [Example 18],4.64,100
Cn1nnnc1C(=NOCc1csc(NC(=O)COCCC2CCCCC2)n1)c1ccccc1 [Example 20],4.63,100
Cn1nnnc1C(=NOCc1csc(NC(=O)COCCC2CCCC2)n1)c1ccccc1 [Example 21],4.29,95
Cc1nnnn1C(=NOCc1cccc(NC(=O)COCC2CC2)n1)c1ccccc1 [Example 23],3.33,95
Cc1nnnn1C(=NOCc1cccc(NC(=O)COCC2CCCC2)n1)c1ccccc1 [Example 26],4.34,97
Cc1nnnn1C(=NOCc1cccc(NC(=O)COCC2CCCCC2)n1)c1ccccc1 [Example 27],4.76,95
Cc1nnnn1C(=NOCc1cccc(NC(=O)C(C)OCC2CCCCC2)n1)c1ccccc1 (stereo not drawn) [Example 28],5.13,100
Cc1nnnn1C(=NOCc1cccc(NC(=O)C(C)OCC2CCCC2)n1)c1ccccc1 (stereo not drawn) [Example 29],4.69,100
Cc1nnnn1C(=NOCc1cccc(NC(=O)COCCC2CCCCC2)n1)c1ccccc1 [Example 30],5.08,95
Cc1nnnn1C(=NOCc1cccc(NC(=O)COCCC2CCCC2)n1)c1ccccc1 [Example 31],4.73,97
Cc1nnnn1C(=NOCc1cccc(NC(=O)C(C)OCC2CCC2)n1)c1ccccc1 (stereo not drawn) [Example 32],4.26,100
Cc1nnnn1C(=NOCc1csc(NC(=O)COCC2CCCC2)n1)c1ccccc1 [Example 36],3.94,97
Cc1nnnn1C(=NOCc1csc(NC(=O)COCC2CCCCC2)n1)c1ccccc1 [Example 37],4.36,100
Cc1nnnn1C(=NOCc1csc(NC(=O)C(C)OCC2CCCCC2)n1)c1ccccc1 (stereo not drawn) [Example 38],4.74,100

SMILES,Log P [1],Eff. % [2] [%]
Cc1nnnn1C(=NOCc1csc(NC(=O)C(C)OCC2CCCC2)n1)c1ccccc1 (stereo not drawn) [Example 39],4.31,100
Cc1nnnn1C(=NOCc1csc(NC(=O)COCCC2CCCCC2)n1)c1ccccc1 [Example 40],4.71,95
Cc1nnnn1C(=NOCc1csc(NC(=O)COCCC2CCCC2)n1)c1ccccc1 [Example 41],4.34,98
CC(C)CCOCC(=O)Nc1cccc(CON=C(c2ccccc2)c2nnnn2C)n1 [Example 43],4.09,–
CC(C)CCOC(C)C(=O)Nc1cccc(CON=C(c2ccccc2)c2nnnn2C)n1 (stereo not drawn) [Example 44],4.41,100
Cc1nnnn1C(=NOCc1csc(NC(=O)COCCC(C)C)n1)c1ccccc1 [Example 46],3.87,100
CC(OCc1ccccc1)C(=O)Nc1cccc(CON=C(c2ccccc2)c2nnnn2C)n1 (stereo not drawn) [Example 47],3.92,–
Cc1nnnn1C(=NOCc1cccc(NC(=O)C(C)OCc2ccccc2)n1)c1ccccc1 (stereo not drawn) [Example 51],4.11,95
Cn1nnnc1C(=NOCc1cccc(NC(=O)COCC2CCCCO2)n1)c1ccccc1 (stereo not drawn) [Example 53],3.33,–
CC(OCC1CCCCO1)C(=O)Nc1cccc(CON=C(c2ccccc2)c2nnnn2C)n1 (stereo not drawn) [Example 55],3.67,100
Cn1nnnc1C(=NOCc1csc(NC(=O)COCC2CCCCO2)n1)c1ccccc1 (stereo not drawn) [Example 57],3.25,95
CC(OCC1CCCCO1)C(=O)Nc1nc(CON=C(c2ccccc2)c2nnnn2C)cs1 (stereo not drawn) [Example 59],3.62,100
Cc1nnnn1C(=NOCc1cccc(NC(=O)COCC2CCCO2)n1)c1ccccc1 (stereo not drawn) [Example 61],2.98,–
Cc1nnnn1C(=NOCc1csc(NC(=O)C(C)OCC2CCCCO2)n1)c1ccccc1 (stereo not drawn) [Example 62],3.69,98
Cn1nnnc1C(=NOCc1cccc(NC(=O)CSCc2ccccc2)n1)c1ccccc1 [Example 64],3.78,–
C=CCSC(C)C(=O)Nc1cccc(CON=C(c2ccccc2)c2nnnn2C)n1 (stereo not drawn) [Example 66],–,95
Cn1nnnc1C(=NOCc1cccc(NC(=O)OCC(C)(C)OCc2ccccc2)n1)c1ccccc1 [Example 68],4.34,100
Cn1nnnc1C(=NOCc1csc(NC(=O)CSCc2cccs2)n1)c1ccccc1 [Example 69],3.46,95
C=CCSCC(=O)Nc1nc(CON=C(c2ccccc2)c2nnnn2C)cs1 [Example 72],3.11,100
CC(SC1CCCC1)C(=O)Nc1nc(CON=C(c2ccccc2)c2nnnn2C)cs1 (stereo not drawn) [Example 73],3.99,95
C=CCSC(C)C(=O)Nc1nc(CON=C(c2ccccc2)c2nnnn2C)cs1 (stereo not drawn) [Example 75],3.31,93
Cn1nnnc1C(=NOCc1csc(NC(=O)CSC2CCCCC2)n1)c1ccccc1 [Example 76],3.92,100

SMILES,Log P [1],Eff. % [2] [%]
Cn1nnnc1C(=NOCc1csc(NC(=O)CSC2CCCC2)n1)c1ccccc1 [Example 77],3.65,95
Cc1ccccc1CSCC(=O)Nc1cccc(CON=C(c2ccccc2)n2nnnc2C)n1 [Example 78],4.06,100
Cc1nnnn1C(=NOCc1cccc(NC(=O)CSC2CCCCC2)n1)c1ccccc1 [Example 79],4.26,100
Cc1nnnn1C(=NOCc1cccc(NC(=O)CSC2CCCC2)n1)c1ccccc1 [Example 80],3.92,100
Cc1nnnn1C(=NOCc1csc(NC(=O)CSCCC(C)C)n1)c1ccccc1 [Example 81],3.99,95
Cc1nnnn1C(=NOCc1csc(NC(=O)C(C)SCc2ccccc2)n1)c1ccccc1 (stereo not drawn) [Example 82],3.85,100
C=CCSCC(=O)Nc1nc(CON=C(c2ccccc2)n2nnnc2C)cs1 [Example 83],3.15,88
Cc1nnnn1C(=NOCc1csc(NC(=O)CSCc2cccs2)n1)c1ccccc1 [Example 84],3.51,98
C=CCSC(C)C(=O)Nc1nc(CON=C(c2ccccc2)n2nnnc2C)cs1 (stereo not drawn) [Example 85],3.35,98
Cc1nnnn1C(=NOCc1csc(NC(=O)CSCc2ccccc2)n1)c1ccccc1 [Example 86],3.57,93
Cc1nnnn1C(=NOCc1csc(NC(=O)CSCC2CC2)n1)c1ccccc1 [Example 87],3.31,100
Cc1nnnn1C(=NOCc1csc(NC(=O)CSC2CCCCC2)n1)c1ccccc1 [Example 89],3.96,100
Cc1nnnn1C(=NOCc1csc(NC(=O)CSC2CCCC2)n1)c1ccccc1 [Example 90],3.65,95
Cn1nnnc1C(=NOCc1cccc(NC(=O)C2CC2c2ncc(C(F)(F)F)cc2Cl)n1)c1ccccc1 (stereo not drawn) [Example 92],4.54,98
Cn1nnnc1C(=NOCc1csc(NC(=O)C2CC2c2ncc(C(F)(F)F)cc2Cl)n1)c1ccccc1 (stereo not drawn) [Example 93],4.37,98
Cn1nnnc1C(=NOCc1cccc(NC(=O)C(C)(C)CSC2CCCCC2)n1)c1ccccc1 [Example 94],4.98,100
CC(OCC(=O)Nc1cccc(CON=C(c2ccccc2)c2nnnn2C)n1)c1ccccc1 (stereo not drawn) [Example 95],3.94,100
CC(COCc1ccccc1)C(=O)Nc1cccc(CON=C(c2ccccc2)c2nnnn2C)n1 (stereo not drawn) [Example 97],3.85,100
Cn1nnnc1C(=NOCc1cccc(NC(=O)CCOCc2ccccc2)n1)c1ccccc1 [Example 99],3.48,90
Cn1nnnc1C(=NOCc1cccc(NC(=O)CCSCc2ccc(F)cc2)n1)c1ccccc1 [Example 100],3.87,95
Cn1nnnc1C(=NOCc1cccc(NC(=O)CCSCc2ccccc2)n1)c1ccccc1 [Example 101],3.83,90

# — patent US20140051575A1 (priority 2011, published 2014)
